Measurements as given in ChEMBL document CHEMBL1139100, “Discovery of anticonvulsant activity of abietic acid through application of linear discriminant analysis” (Bioorg Med Chem Lett, 2007).
The source made the active and inactive calls. The calls are words filed in the database; no cut-off is given here.

Tests used:
Mus musculus [1] = assay: Anticonvulsant activity in Swiss mouse at 100 mg/kg, ip after 0.5 hrs by PTZ test; format: functional, organism-based; design: dose 100 mg/kg
Mus musculus [2] = assay: Neurotoxicity against Swiss mouse at 30 mg/kg, po after 4 hrs by rotarod test; format: toxicity, organism-based; design: dose 30 mg/kg, route oral; conditions: in vivo
Mus musculus [3] = assay: Anticonvulsant activity in Swiss mouse at 100 mg/kg, ip after 4 hrs by MES test; format: functional, organism-based; design: dose 100 mg/kg
Mus musculus [4] = assay: Anticonvulsant activity in Swiss mouse at 100 mg/kg, ip after 4 hrs by PTZ test; format: functional, organism-based; design: dose 100 mg/kg
Mus musculus [5] = assay: Anticonvulsant activity in Swiss mouse at 30 mg/kg, ip after 4 hrs by MES test; format: functional, organism-based; design: dose 30 mg/kg
Mus musculus [6] = assay: Anticonvulsant activity in Swiss mouse at 30 mg/kg, po after 0.5 hrs by MES test; format: functional, organism-based; design: dose 30 mg/kg
Mus musculus [7] = assay: Anticonvulsant activity in Swiss mouse at 100 mg/kg, ip after 0.5 hrs by MES test; format: functional, organism-based; design: dose 100 mg/kg
Mus musculus [8] = assay: Anticonvulsant activity in Swiss mouse at 100 mg/kg, po after 4 hrs by PTZ test; format: functional, organism-based; design: dose 100 mg/kg
Mus musculus [9] = assay: Anticonvulsant activity in Swiss mouse at 100 mg/kg, po after 0.5 hrs by PTZ test; format: functional, organism-based; design: dose 100 mg/kg
Mus musculus [10] = assay: Anticonvulsant activity in Swiss mouse at 100 mg/kg, po after 4 hrs by MES test; format: functional, organism-based; design: dose 100 mg/kg
Mus musculus [11] = assay: Anticonvulsant activity in Swiss mouse at 30 mg/kg, ip after 0.5 hrs by MES test; format: functional, organism-based; design: dose 30 mg/kg
Mus musculus [12] = assay: Neurotoxicity against Swiss mouse at 100 mg/kg, ip after 4 hrs by rotarod test; format: toxicity, organism-based; design: dose 100 mg/kg, route intraperitoneal; conditions: in vivo
Mus musculus [13] = assay: Neurotoxicity against Swiss mouse at 100 mg/kg, po after 0.5 hrs by rotarod test; format: toxicity, organism-based; design: dose 100 mg/kg, route oral; conditions: in vivo
Mus musculus [14] = assay: Anticonvulsant activity in Swiss mouse at 30 mg/kg, po after 4 hrs by PTZ test; format: functional, organism-based; design: dose 30 mg/kg
Mus musculus [15] = assay: Neurotoxicity against Swiss mouse at 30 mg/kg, po after 0.5 hrs by rotarod test; format: toxicity, organism-based; design: dose 30 mg/kg, route oral; conditions: in vivo
Mus musculus [16] = assay: Anticonvulsant activity in Swiss mouse at 30 mg/kg, ip after 0.5 hrs by PTZ test; format: functional, organism-based; design: dose 30 mg/kg
Mus musculus [17] = assay: Neurotoxicity against Swiss mouse at 100 mg/kg, po after 4 hrs by rotarod test; format: toxicity, organism-based; design: dose 100 mg/kg, route oral; conditions: in vivo
Mus musculus [18] = assay: Neurotoxicity against Swiss mouse at 100 mg/kg, ip after 0.5 hrs by rotarod test; format: toxicity, organism-based; design: dose 100 mg/kg, route intraperitoneal; conditions: in vivo
Mus musculus [19] = assay: Anticonvulsant activity in Swiss mouse at 30 mg/kg, po after 4 hrs by MES test; format: functional, organism-based; design: dose 30 mg/kg
Mus musculus [20] = assay: Anticonvulsant activity in Swiss mouse at 30 mg/kg, po after 0.5 hrs by PTZ test; format: functional, organism-based; design: dose 30 mg/kg
Mus musculus [21] = assay: Anticonvulsant activity in Swiss mouse at 30 mg/kg, ip after 4 hrs by PTZ test; format: functional, organism-based; design: dose 30 mg/kg
Mus musculus [22] = assay: Neurotoxicity against Swiss mouse at 30 mg/kg, ip after 0.5 hrs by rotarod test; format: toxicity, organism-based; design: dose 30 mg/kg, route intraperitoneal; conditions: in vivo
Mus musculus [23] = assay: Neurotoxicity against Swiss mouse at 30 mg/kg, ip after 4 hrs by rotarod test; format: toxicity, organism-based; design: dose 30 mg/kg, route intraperitoneal; conditions: in vivo
Mus musculus [24] = assay: Anticonvulsant activity in Swiss mouse at 100 mg/kg, po after 0.5 hrs by MES test; format: functional, organism-based; design: dose 100 mg/kg

## CC(C)C1=CC2=CC[C@@H]3[C@](C)(CCC[C@@]3(C)C(=O)O)[C@H]2CC1 [ABIETIC ACID]
Mus musculus [1]
  Activity: inactive
Mus musculus [2]
  Activity: Non-toxic
Mus musculus [3]
  Activity: Active
Mus musculus [4]
  Activity: inactive
Mus musculus [5]
  Activity: Active
Mus musculus [6]
  Activity: inactive
Mus musculus [7]
  Activity: inactive
Mus musculus [8]
  Activity: inactive
Mus musculus [9]
  Activity: inactive
Mus musculus [10]
  Activity: Active
Mus musculus [11]
  Activity: inactive
Mus musculus [12]
  Activity: Non-toxic
Mus musculus [13]
  Activity: Non-toxic
Mus musculus [14]
  Activity: inactive
Mus musculus [15]
  Activity: Non-toxic
Mus musculus [16]
  Activity: inactive
Mus musculus [17]
  Activity: Non-toxic
Mus musculus [18]
  Activity: Non-toxic
Mus musculus [19]
  Activity: Active
Mus musculus [20]
  Activity: inactive
Mus musculus [21]
  Activity: inactive
Mus musculus [22]
  Activity: Non-toxic
Mus musculus [23]
  Activity: Non-toxic
Mus musculus [24]
  Activity: inactive
